From patent US9820483B2, “Microbial composition” (Rohm and Haas Company, priority 2011, dated 2017)
Like-named read-outs stand apart in the source and are kept apart here.

Columns and labels:
Type in all cases: cell-based
[1] = test system: Escherichia coli (E. coli—ATCC #10536); experiment: Automated assessment of efficacy in model surfactant base (2.85% sodium cocoyl glycinate + 1.85% sodium lauroamphoacetate, pH 10), 15 seconds exposure, delta OD450/OD590 in D/E quench; conditions: for MBC: in 2.85% sodium cocoyl glycinate + 1.85% sodium lauroamphoacetate solution at pH 10, E. coli
Experimental: Solutions were prepared such that the concentrations of the surfactant components and test actives were 1.1× the final desired concentration in order to allow for dilution with the bacterial inoculum in the test. The solutions were manually adjusted to pH 10.0 by dropwise addition of sodium hydroxide solution, as measured with a pH meter at ambient temperature.
Tests were conducted using standard microtiter plate assays using an automated liquid handling system. 270 μl of the surfactant test solution was pipetted into each well of the microtitre plate and 30 μl of the bacterial suspension was then added. After exactly 15 seconds of bacterial exposure, a 30 μl volume of bacterial cells was withdrawn and transferred to 270 μl of D/E quench solution. After 5 minutes in the D/E quench, the optical density (OD) was measured for each plate in turn at two specific wavelengths (450 nm and 590 nm). These provide a dual check of antimicrobial activity, as the OD450 reading is specific for the yellow colour of D/E quench when bacterial growth is observed, whereas OD590 is specific for the initial purple colour of the D/E quench which is retained if no bacterial growth is observed. After the time zero OD measurements, plates were then incubated at 37° C. overnight (16 hours) before repeating the OD measurements. Delta OD values were calculated by subtracting […]. Bacterial growth is observed as an increase in OD450 and a decrease in ΔOD590. To identify antibacterially efficacious systems (those preventing appreciable bacterial growth after incubation), the following threshold changes in OD readings have been adopted: if (1). OD450 increases by less than 0.2 absorbance unit on incubation and (2). OD590 decreases by less than 0.35 unit on incubation. Conversely, where OD450 increases by more than 0.2 AU and OD590 decreases by more than 0.35 unit after incubation, corresponding to a colour shift from purple to yellow, the test system allows bacterial growth and is not deemed efficacious. Four replicate measurements in the same plate have been made for each test system. The number of replicate wells showing either bacterial growth or no growth is also readily assessed by eye by following the colour change.
Dose responses for individual components and binary mixtures of actives at a fixed concentration ratio were generated by sequential dilution of liquors with further surfactant solution to obtain a series of endpoints.
In some selected cases, the combinations were also tested at the weight ratio 1:1.
The method used was the same as in the above Table.

[2] = test system: Escherichia coli (10536 strain); experiment: Antimicrobial efficacy in water, 15 seconds contact, mean bacterial survival NMBS on TSA plates; conditions: E. coli, 15 s
Experimental: Antimicrobial efficacy is tested against a representative pathogenic bacterial organism, Gram negative Escherichia coli. Concentrations of actives are expressed in terms of the percentage weight/volume (% w/v) throughout the following Examples. […] Here, OD620 indicates the absorbance of a sample in a cuvette of 1.0 cm path length at a wavelength of 620 nm. This bacterial stock was used for assaying against antimicrobial actives (in triplicate). The following assay describes the testing of 8 materials using 6 dilutions across half of a 96-well micro titre plate (MTP). […] 1M solutions of the test actives were prepared in dimethylsulphoxide (DMSO). […] This MTP was labelled as the “Screening plate”. […] The composition of the neutralising solution was as follows: pancreatic digest of casein, 5.0 g/L; […] 270 μl of tryptone diluent solution was added to all the remaining wells of the Dilution MTP (columns 2-6). […] After a contact time of 15 seconds, the mixtures were quenched by transferring 30 μl volumes of the mixtures into the 270 μl D/E neutralising solution in the prepared dilution plate, using aspiration to mix. […] Mean bacterial survival numbers NMBS (expressed in Log CFU/ml) are obtained by first determining the segment of the TSA plate where the number of bacterial colonies is countable. From the colony number in this segment. NMBS is calculated by the formula: […] DF may range from 1 for the quench, to 6 for the highest dilution). The factor 100/3 is a conversion factor from the volume of the inocula spot to one milliliter. Every assay test was performed in triplicate. The reported mean bacterial survival results are the average of such a triplet, the error is the corresponding standard deviation. […] Such a count of about 7 is generally observed when bacteria are exposed to non-biocidal materials.

[3] = test system: Staphylococcus aureus (10788 strain); experiment: Antimicrobial efficacy of actives against S. aureus in water, 15 seconds contact, NMBS
Experimental: Selected materials were also tested against a representative Gram positive Staphylococcus aureus.
The following assay describes the testing of 8 materials using 6 dilutions across half of a 96-well micro titre plate (MTP). Using this approach it is possible to assay 16 actives (without replicates) with one full dilution plate, replicating this set up in two halves of the plate columns, 1-6 and 7-12.
Bacterial stock (30 μl) was then added to the prepared 270 μl of the solution of actives in the Screening Plate and mixed, using a multichannel pipette with 8 tips to aspirate and dispense the same volume of bacterial stock in parallel to 8 wells in rows A-H. After a contact time of 15 seconds, the mixtures were quenched by transferring 30 μl volumes of the mixtures into the 270 μl D/E neutralising solution in the prepared dilution plate, using aspiration to mix. After exactly 5 minutes in the D/E neutralising solution, […] were transferred from column 1 to column 2 of the Dilution MTP and mixed, before transferring further 30 μl volumes from column 2 into column 3. This process was repeated serially diluting the bacteria across the plate to column 6.
30 μl volumes from each well in the Dilution MTP were transferred onto pre-labelled segment of Tryptone Soya Agar (TSA) plates starting from the lowest bacterial concentration (highest dilution, column 6) to the highest bacterial concentration (column 1). The TSA plates were allowed to stand for ca. 2 hours so that the 30 μl inocula spots could dry and the plates were then inverted and incubated overnight at 37° C. before enumerating the bacterial colonies at the labelled dilutions to determine the effects of the actives on bacterial growth.
Mean bacterial survival numbers NMBS (expressed in Log CFU/ml) are obtained by first determining the segment of the TSA plate where the number of bacterial colonies is countable. From the colony number in this segment. NMBS is calculated by the formula: NMBS=log {Ncol·10^DF·100/3} Here, Ncol is the colony count, and DF is the dilution factor taken from the MTP-well corresponding to the TSA plate segment (i.e. DF may range from 1 for the quench, to 6 for the highest dilution). The factor 100/3 is a conversion factor from the volume of the inocula spot to one milliliter.
Every assay test was performed in triplicate.
Thus, a value of NMBS as of about 7 corresponds to a count of about […] from the fifth dilution well, i.e. with DF=5. Such a count of about 7 is generally observed when bacteria are exposed to non-biocidal materials. In case no surviving colonies are observed in any segment of the TSA plate, this is interpreted as complete kill and a value of NMBS=0 is reported.
S. aureus Bacterial stock was prepared as shown below and the antibacterial efficacy of the active was carried out as explained earlier for E. Coli.
An overnight culture of Staphylococcus aureus (10788 strain) was inoculated onto a Tripticase Soy Agar (TSA) plate and grown for ca. 18 hrs at 37° C. The culture of S. aureus was washed from the plate using sterile saline (0.85% NaCl) solution and a sterile spreader and suspended in 50 ml saline. This suspension was separated into equal volumes and centrifuged at 4000 rpm for 15 minutes. Following centrifugation the pellet was re-suspended in saline to give a final concentration of 0.35 OD620 equivalent to about 10^8 cells per milliliter for this particular organism. Here. OD620 indicates the absorbance of a sample in a cuvette of 1.0 cm path length at a wavelength of 620 nm. This bacterial stock was used for assaying against antimicrobial actives (in triplicate).

C=C(C)C1CCC(C)CC1O (centres unmarked) [isopulegol, 5-methyl-2-(prop-1-en-2-yl)cyclohexanol]
MBC ([1]; Escherichia coli, ATCC10536, 15 s, read-out: MBC): > 5000 µg/mL
No. of replicates showing growth (out of 4) ([1]; single active at 0.3% w/v): 4
Δ OD 590 nm = OD590 (time = 16 hours) − OD590 (time zero), Mean ([1]; single active at 0.3% w/v): 0.61
ΔOD 450 nm = OD450 (time = 16 hours) − OD450 (time zero), Mean ([1]; single active at 0.3% w/v): −0.49
No. of replicates showing growth (out of 4) ([1]; single active at 0.5% w/v): 2
Δ OD 590 nm = OD590 (time = 16 hours) − OD590 (time zero), Mean ([1]; single active at 0.5% w/v): 0.42
ΔOD 450 nm = OD450 (time = 16 hours) − OD450 (time zero), Mean ([1]; single active at 0.5% w/v): −0.09
No. of replicates showing growth (out of 4) ([1]; single active at […] w/v): 4
Δ OD 590 nm = OD590 (time = 16 hours) − OD590 (time zero), Mean ([1]; single active at […] w/v): 0.59
ΔOD 450 nm = OD450 (time = 16 hours) − OD450 (time zero), Mean ([1]; single active at […] w/v): −0.54
NMBS ([2]; 0.3% w/v alone): 0 log CFU/ml
NMBS ([2]; 0.4% w/v alone): 0 log CFU/ml
NMBS ([2]; […] w/v alone): 7.77 log CFU/ml
MBC ([2]; component alone, in water): 0.3 % (w/v)

CCCc1ccccc1O [2-n-propylphenol]
MBC [1]: 0.175 % w/v
No. of replicates showing growth (out of 4) ([1]; single active at 0.05% w/v): 4
Δ OD 590 nm = OD590 (time = 16 hours) − OD590 (time zero), Mean ([1]; single active at 0.05% w/v): 0.46
No. of replicates showing growth (out of 4) ([1]; single active at […] w/v): 4
Δ OD 590 nm = OD590 (time = 16 hours) − OD590 (time zero), Mean ([1]; single active at […] w/v): 0.66
NMBS ([3]; 0.03% w/v alone, S. aureus, 15 s): 7.12 log CFU/ml
bacterial kill (in words) ([3]; […] 2-propylphenol alone, S. aureus): Complete bacterial kill
MBC ([3]; component alone, against S. aureus, in water): 0.25 % w/v
NMBS ([2]; 0.06% w/v alone): 7.68 log CFU/ml
